In this assay the target is T1, human oxytocin receptor (Homo sapiens, UniProt P30559).
T1 construct: host or cells: CHO cells, stably transfected (pcDNA3.1 vector)
T1 sequence (P30559 1-389): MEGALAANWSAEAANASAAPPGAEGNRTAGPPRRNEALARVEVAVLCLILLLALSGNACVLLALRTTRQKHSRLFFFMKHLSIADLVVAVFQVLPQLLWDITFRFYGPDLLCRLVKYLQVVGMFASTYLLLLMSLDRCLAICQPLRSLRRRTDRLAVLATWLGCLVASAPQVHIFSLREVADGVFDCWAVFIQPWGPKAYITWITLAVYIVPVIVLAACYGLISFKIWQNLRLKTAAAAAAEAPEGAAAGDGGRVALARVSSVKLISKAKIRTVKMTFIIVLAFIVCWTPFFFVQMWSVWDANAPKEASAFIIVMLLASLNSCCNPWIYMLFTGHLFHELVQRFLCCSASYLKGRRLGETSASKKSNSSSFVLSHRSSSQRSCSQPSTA
The assay is described as follows: Oxytocin binding in CHO cell membranes expressing human oxytocin receptors ([3H]oxytocin radioligand binding). Conditions: 100 nM, read-out: OT % inhibition @ 100 nM. In a few lines: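 CHO membranes expressing human oxytocin receptor (25–50 μg protein/well) incubated 60 min at room temperature with [3H]oxytocin in Tris-HCl pH 7.4 buffer with MgCl2, BSA and protease inhibitors. Filtration and scintillation counting; reported as % inhibition at a stated concentration or nM IC50.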
For the molecule `COc1ccccc1-c1ccc(C(=O)N2Cc3ccc(C(=O)N4CCN(c5ccncc5)CC4)n3Cc3ccccc32)cc1OC` [Example 122, {10-[(2,2′-Dimethoxy-[1,1′-biphenyl]-4-yl)carbonyl]-10,11-dihydro-5H-pyrrolo[2,1-c][1,4]benzodiazepin-3-yl}[4-(4-pyridinyl)-1-piperazinyl]methanone], the inhibition at 0.1 µM was 61%.
Consider `COc1cccc(-c2ccc(C(=O)N3Cc4ccc(C(=O)N5CCN(c6ccncc6)CC5)n4Cc4ccccc43)cc2OC)c1` [Example 123, {10-[(2,3′-Dimethoxy-[1,1′-biphenyl]-4-yl)carbonyl]-10,11-dihydro-5H-pyrrolo[2,1-c][1,4]benzodiazepin-3-yl}[4-(4-pyridinyl)-1-piperazinyl]methanone], for which the inhibition at 0.1 µM came out at 95%.
For `O=C(c1ccc2n1Cc1ccccc1N(C(=O)c1ccc(-c3cccc4ccccc34)cc1Cl)C2)N1CCN(c2ccncc2)CC1` [Example 124, {10-[2-Chloro-4-(naphthalen-1-yl)benzoyl]-10,11-dihydro-5H-pyrrolo[2,1-c][1,4]benzodiazepin-3-yl}[4-(4-pyridinyl)-1-piperazinyl]methanone] the value was 24%.
For `COc1ccccc1-c1ccc(C(=O)N2Cc3ccc(C(=O)N(C)CCc4ccncc4)n3Cc3ccccc32)cc1OC` [Example 125, 10-[(2,2′-Dimethoxy-[1,1′-biphenyl]-4-yl)carbonyl]-N-methyl-N-[2-(4-pyridinyl)ethyl]-10,11-dihydro-5H-pyrrolo[2,1-c][1,4]benzodiazepine-3-carboxamide] the value was 94%; for `COc1ccccc1-c1ccc(C(=O)N2Cc3ccc(C(=O)N(C)CCc4ccncc4)n3Cc3ccccc32)cc1C` [Example 126, 10-[(2′-Methoxy-2-methyl-[1,1′-biphenyl]-4-yl)carbonyl]-N-methyl-N-[2-(4-pyridinyl)ethyl]-10,11-dihydro-5H-pyrrolo[2,1-c][1,4]benzodiazepine-3-carboxamide], 93%.
As for `Cc1ccccc1-c1ccc(C(=O)N2Cc3ccc(C(=O)N(C)CCc4ccncc4)n3Cc3ccccc32)cc1C` [Example 127, 10-[(2,2′-Dimethyl-[1,1′-biphenyl]-4-yl)carbonyl]-N-methyl-N-[2-(4-pyridinyl)ethyl]-10,11-dihydro-5H-pyrrolo[2,1-c][1,4]benzodiazepine-3-carboxamide], the inhibition at 0.1 µM came out at 102%.
In the case of `COc1cccc(-c2ccc(C(=O)N3Cc4ccc(C(=O)N(C)CCc5ccncc5)n4Cc4ccccc43)cc2C)c1` [Example 128, 10-[(3′-Methoxy-2-methyl-[1,1′-biphenyl]-4-yl)carbonyl]-N-methyl-N-[2-(4-pyridinyl)ethyl]-10,11-dihydro-5H-pyrrolo[2,1-c][1,4]benzodiazepine-3-carboxamide], the inhibition at 0.1 µM is 88%.
For `COc1ccccc1-c1ccc(C(=O)N2Cc3ccc(C(=O)N(C)CCc4ccncc4)n3Cc3ccccc32)cc1` [Example 129, 10-[(2′-Methoxy-[1,1′-biphenyl]-4-yl)carbonyl]-N-methyl-N-[2-(4-pyridinyl)ethyl]-10,11-dihydro-5H-pyrrolo[2,1-c][1,4]benzodiazepine-3-carboxamide] the value was 98%; for `Cc1ccccc1-c1ccc(C(=O)N2Cc3ccc(C(=O)N(C)CCc4ccncc4)n3Cc3ccccc32)cc1` [Example 130, N-Methyl-10-[(2′-methyl-[1,1′-biphenyl]-4-yl)carbonyl]-N-[2-(4-pyridinyl)ethyl]-10,11-dihydro-5H-pyrrolo[2,1-c][1,4]benzodiazepine-3-carboxamide], 0%; for `COc1cc(C(=O)N2Cc3ccc(C(=O)N(C)CCc4ccncc4)n3Cc3ccccc32)ccc1-c1ccccc1C` [Example 131, 10-[(2-Methoxy-2′-methyl-[1,1′-biphenyl]-4-yl)carbonyl]-N-methyl-N-[2-(4-pyridinyl)ethyl]-10,11-dihydro-5H-pyrrolo[2,1-c][1,4]benzodiazepine-3-carboxamide], 99%.
Regarding `COc1cc(-c2ccccc2C)c(Cl)cc1C(=O)N1Cc2ccc(C(=O)N(C)CCc3ccncc3)n2Cc2ccccc21` [Example 132, 10-[(6-Chloro-3-methoxy-2′-methyl-[1,1′-biphenyl]-4-yl)carbonyl]-N-methyl-N-[2-(4-pyridinyl)ethyl]-10,11-dihydro-5H-pyrrolo[2,1-c][1,4]benzodiazepine-3-carboxamide], the inhibition at 0.1 µM worked out at 99%.
For `COc1cccc(-c2cc(OC)c(C(=O)N3Cc4ccc(C(=O)N(C)CCc5ccncc5)n4Cc4ccccc43)cc2Cl)c1` [Example 133, 10-[(6-Chloro-3,3′-dimethoxy-[1,1′-biphenyl]-4-yl)carbonyl]-N-methyl-N-[2-(4-pyridinyl)ethyl]-10,11-dihydro-5H-pyrrolo[2,1-c][1,4]benzodiazepine-3-carboxamide], the inhibition at 0.1 µM was determined as 87%.
For `COc1cc(C(=O)N2Cc3ccc(C(=O)N(C)CCc4ccncc4)n3Cc3ccccc32)ccc1-c1cccc2ccccc12` [Example 134, 10-[3-Methoxy-4-(naphthalen-1-yl)benzoyl]-N-methyl-N-[2-(4-pyridinyl)ethyl]-10,11-dihydro-5H-pyrrolo[2,1-c][1,4]benzodiazepine-3-carboxamide] the value was 88%.
For `COc1cccc(-c2ccc(C(=O)N3Cc4ccc(C(=O)N(C)CCc5ccncc5)n4Cc4ccccc43)cc2OC)c1` [Example 135, 10-[(2,3′-Dimethoxy-[1,1′-biphenyl]-4-yl)carbonyl]-N-methyl-N-[2-(4-pyridinyl)ethyl]-10,11-dihydro-5H-pyrrolo[2,1-c][1,4]benzodiazepine-3-carboxamide] the value was 96%; for `CN(CCc1ccncc1)C(=O)c1ccc2n1Cc1ccccc1N(C(=O)c1ccc(-c3cccc4ccccc34)cc1Cl)C2` [Example 136, 10-[2-Chloro-4-(naphthalen-1-yl)benzoyl]-N-methyl-N-[2-(4-pyridinyl)ethyl]-10,11-dihydro-5H-pyrrolo[2,1-c][1,4]benzodiazepine-3-carboxamide], 44%.
For the molecule `Cc1cc(C(=O)N2Cc3ccc(C(=O)N(C)CCc4ccncc4)n3Cc3ccccc32)ccc1-c1ccccc1C(F)(F)F` [Example 137, N-Methyl-10-{[2-methyl-2′-trifluoromethyl-[1,1′-biphenyl]-4-yl]carbonyl}-N-[2-(4-pyridinyl)ethyl]-10,11-dihydro-5H-pyrrolo[2,1-c][1,4]benzodiazepine-3-carboxamide], the inhibition at 0.1 µM was determined as 95%.
For `COc1ccccc1-c1ccc(C(=O)N2Cc3ccc(C(=O)N4CCCCC4c4cccnc4)n3Cc3ccccc32)cc1C` (stereo not drawn) [Example 138, {10-[(2′-Methoxy-2-methyl-[1,1′-biphenyl]-4-yl)carbonyl]-10,11-dihydro-5H-pyrrolo[2,1-c][1,4]benzodiazepin-3-yl}[2-(3-pyridinyl)-1-piperidinyl]methanone] the value was 97%.
In the case of `COc1ccccc1-c1ccc(C(=O)N2Cc3ccc(C(=O)N4CCCCC4c4cccnc4)n3Cc3ccccc32)cc1` (stereo not drawn) [Example 139, {10-[(2′-Methoxy-[1,1′-biphenyl]-4-yl)carbonyl]-10,11-dihydro-5H-pyrrolo[2,1-c][1,4]benzodiazepin-3-yl}[2-(3-pyridinyl)-1-piperidinyl]methanone], the inhibition at 0.1 µM is 96%.

The values above are taken from patent US7064120B2, “Tricyclic pyridyl carboxamides and derivatives thereof tocolytic oxytocin receptor antagonists” (Wyeth, priority 2001, dated 2006).
